Assay results reported in patent US7947307B2, “Methods and compositions for imaging” (Mount Sinai School of Medicine of New York University, priority 2004, dated 2011).
Where two headings read alike, the source gives them in different places.

Key:
[1] = cited from earlier work
[2] = cited from earlier work; remark: listed apart in the source
[3] = cited from earlier work; remark: listed apart in the source
[4] = tested on: elicited peritoneal macrophages isolated from apoE-/- mice; assay: Cholesterol efflux assay in cholesterol-loaded elicited peritoneal macrophages; type: cell-based, mouse; conditions: 1.5 μM
Description: Cholesterol efflux assays. Human apo A-I was prepared as described before (25). Low density lipoprotein (LDL, 1.019<density<1.063 g/mL) and subfraction 3 of high density lipoprotein (HDL3, 1.125<density<1.21 g/mL) were isolated by sequential ultracentrifugation of human plasma. Lipoproteins were extensively dialyzed against phosphate buffered saline (PBS) and protein content measured with a CBQCA Protein Quantitation Kit (Molecular Probes, Eugene, Oreg.). The quality and purity of the lipoprotein preparations was confirmed by SDS-PAGE by the identification of appropriate apolipoproteins. Acetylated LDL (AcLDL) was prepared according to (26). Dulbeco's Modified Eagle medium (DMEM), L-glutamine, Penicillin-Streptomycin solutions, fetal bovine serum (FBS), and PBS were purchased from the Invitrogen Corporation (Carlsbad, Calif.). […]
For measurement of cholesterol efflux, aliquots of the media were collected at 6 and 18 h, and tritium cpm measured by scintillation counting. […] Free and esterified cholesterol content was measured prior to and after efflux under the various treatment conditions. After extraction of lipids, cells were lysed with 0.2 N NaOH and protein content determined by Lowry assay. Total cholesterol and free cholesterol were determined by using kits from Roche Applied Science. Cholesteryl ester content was determined by subtracting free cholesterol from total cholesterol.

[5] = mouse; cited from earlier work
[6] = concentration 1M (values in parentheses)

Compound | r1, 0.5 T 37° C. [1] | Osmolality ([2]; concentration 0.01M) | Viscosity ([3]; concentration 0.01M) | cholesterol efflux to HDL ([4]; [3H]cholesterol-AcLDL loaded macrophages with F-1394, acceptor HDL3 50 μg/mL) | cholesterol efflux to apoA-I ([4]; [3H]cholesterol-AcLDL loaded macrophages with F-1394, acceptor apoA-I 50 μg/mL) | Osmolality ([2]; concentration 0.5M) | Osmolality [2, 6] | Viscosity ([3]; concentration 0.5M) | Viscosity [3, 6] | t1/2 in the circulation [5]
Cc1[nH+]cc(COP(=O)([O-])[O-])c(CN(CCN(CC(=O)[O-])Cc2c(COP(=O)([O-])O)c[nH+]c(C)c2O)CC(=O)[O-])c1O.[Mn].[Na+].[Na+].[Na+] [Mangafodipir, Mn-DPDP] | 1.9 mM⁻¹ s⁻¹ | 0.29 osmol/kg | 0.7 cP | – | – | – | – | – | – | –
O=C(Nc1ccccc1)c1cc([N+](=O)[O-])ccc1Cl [GW9662] | – | – | – | did not affect | did not affect | – | – | – | – | –
O=C([O-])CN1CCN(CC(=O)[O-])CCN(CC(=O)[O-])CCN(CC(=O)[O-])CC1.[Gd+3] [Gadoterate, Gd-DOTA] | 3.6 mM⁻¹ s⁻¹ | – | – | – | – | 1.35 osmol/kg | (4.02) osmol/kg | 2.0 cP | (11.3) cP | –
CNC(=O)CN(CCN(CCN(CC(=O)[O-])CC(=O)NC)CC(=O)[O-])CC(=O)[O-].[Gd+3] [Gadodiamide, Gd-DTPA-BMA] | 3.9 mM⁻¹ s⁻¹ | – | – | – | – | 0.79 osmol/kg | (1.90) osmol/kg | 1.4 cP | (3.9) cP | –
CNC[C@H](O)[C@@H](O)[C@H](O)[C@H](O)CO.CNC[C@H](O)[C@@H](O)[C@H](O)[C@H](O)CO.O=C([O-])CN(CCN(CC(=O)[O-])CC(=O)O)CCN(CC(=O)O)C(COCc1ccccc1)C(=O)[O-].[Gd+3] (centres unmarked) [Gadobenate, Gd-BOPTA] | 4.4 mM⁻¹ s⁻¹ | – | – | – | – | 1.97 osmol/kg | – | 5.3 cP | – | –
CNC[C@H](O)[C@@H](O)[C@H](O)[C@H](O)CO.CNC[C@H](O)[C@@H](O)[C@H](O)[C@H](O)CO.O=C([O-])CN(CCN(CC(=O)[O-])CC(=O)O)CCN(CC(=O)[O-])CC(=O)O.[Gd+3] [Gadopenetate, Gd-DTPA] | 3.8 mM⁻¹ s⁻¹ | – | – | – | – | 1.96 osmol/kg | – | 2.9 cP | – | –
HDL-apoAI: apolipoprotein AI of HDL | – | – | – | – | – | – | – | – | – | roughly 10 h
Gd-HPDO3A [Gadoteridol] | 3.7 mM⁻¹ s⁻¹ | – | – | – | – | 0.63 osmol/kg | (1.91) osmol/kg | 1.3 cP | (3.9) cP | –
Gd-DTPA-BMEA [Gadoversetamide] | 4.7 mM⁻¹ s⁻¹ | – | – | – | – | 1.11 osmol/kg | – | 2.0 cP | – | –
O=C([O-])CN1CCN(CC(=O)[O-])CCN([C@H](CO)[C@H](O)CO)CCN(CC(=O)[O-])CC1.[Gd+3] (racemic) [Gadobutrol, Gd-DO3A-butrol] | 3.6 mM⁻¹ s⁻¹ | – | – | – | – | 0.57 osmol/kg | (1.39) osmol/kg | 1.4 cP | (3.7) cP | –
